We go through 2 compounds from PMC11597353, “Synthesis of Novel Gefitinib-Conjugated 1,2,3-Triazole Derivatives and Their Effect of Inducing DNA Damage and Apoptosis in Tumor Cells” (Molecules, 2024).

Data set [1] has as its system Bcl-2/Caspase-3/PARP signaling pathway. As to the kind of experiment: Western blot of apoptosis-related proteins in HepG2 cells. As to conditions: 48 h; for expression level of Bcl-2 / expression level of Caspase-3 / expression level of Caspase-9 / expression level of PARP / level of cleaved Caspase-3 / level of cleaved PARP: HepG2, 2, 4, 8 μM; for expression of Bax: HepG2, with increasing drug concentration. Type of data set: cell-based, human. The source says:
We conducted an in-depth study on the mechanisms of apoptosis induced by compounds 11m and 11t (Figure 9). The Bcl-2 protein family is located upstream in the apoptosis signaling pathway, with Bcl-2 exerting anti-apoptotic and pro-proliferative effects by inhibiting the release of cytochrome C (cyt-c) from the mitochondria. Previous studies have reported that many anticancer drugs exert pro-apoptotic effects by downregulating Bcl-2. When apoptosis occurs, the expression level of Bcl-2 is suppressed, cyt-c is released, and it binds to apoptotic protease activating factor (Apaf-1) to form the apoptosome, triggering a cascade reaction involving the Caspase family proteins. The apoptosome first promotes the activation of Caspase-9, which in turn activates Caspase-3, forming cleaved Caspase-3. Cleaved Caspase-3 further activates downstream PARP proteins, ultimately promoting apoptosis. […] After treating HepG2 cells with different concentrations of the compounds for 48 h, we extracted cellular proteins and used Western blotting to detect changes in the expression of apoptosis-related proteins. […] The expression levels of Caspase-3, Caspase-9, and PARP decreased with increasing drug concentration, whereas the levels of cleaved Caspase-3 and cleaved PARP increased.
HepG2 cells were seeded in 6-well plates and incubated for 24 h. They were then treated with 11m or 11t at concentrations of 2, 4, or 8 μM for 48 h. The cells were harvested, and cytoplasmic and nuclear proteins were extracted using cell lysis buffer from Beyotime Biotechnology (Shanghai, China). Protein supernatants were mixed with loading buffer, denatured at 100 °C for 10 min, and quantified using BCA. Equal amounts of protein, along with molecular weight markers, were loaded onto a 12% SDS-PAGE gel and separated by electrophoresis for 2 h. The separated proteins were transferred onto NC membranes, and nonspecific binding sites on the membranes were blocked with 5% skim milk. Membranes were incubated with primary antibodies overnight at 4 °C, followed by incubation with HRP-conjugated secondary antibodies (goat anti-rabbit or goat anti-mouse IgG) at room temperature for 2 h. Protein bands were visualized on NC membranes using ECL ultra-sensitive chemiluminescence solution and a Bio-Rad gel imaging and analysis system.
On the technique in general: Immunoblotting shows a protein as a band on a membrane.

Data set [2] relates to HepG2 cells. As to the kind of experiment: Transwell migration assay. The class given is cell-based, human. As to conditions: HepG2, 2, 4, 8 μM, 48 h, vs control, p < 0.01. The source says:
To investigate the effect of the compounds on the migration of wild-type liver cancer cells, we conducted wound healing and Transwell assays to assess changes in the migration ability of HepG2 cells after treatment with compounds 11m and 11t. […] The Transwell migration assay, another important method for evaluating cell migration, involves seeding tumor cells in a chamber and assessing their migration ability by counting the number of cells that pass through the membrane. […] These findings indicate that compounds 11m and 11t can inhibit the migration ability of liver cancer cells in a concentration-dependent manner.
HepG2 cells were starved in serum-free Gibco DMEM for 24 h, then seeded in the upper chamber of a 24-well Transwell plate (Corning Inc., Corning, NY, USA) at a density of 5 × 10^5 cells/mL. 11m or 11t was added to achieve final concentrations of 0, 2, 4, and 8 μM. The upper chamber’s total volume was 200 μL, while the lower chamber contained 600 μL of Gibco DMEM with 20% serum. After 48 h of incubation, the culture medium was washed off with PBS, and the cells were fixed with 4% paraformaldehyde at room temperature for 20 min. […] Images were taken under an inverted microscope, and quantification was performed using ImageJ.

The subject of data set [3] is HepG2 cells. The experiment in a line: Colony formation assay. Type of data set: cell-based, human. As to conditions: 7 days. The method, then: A colony formation assay is used to assess the ability of adherent cells to proliferate and form cell colonies on a plate, making it one of the key methods for evaluating cell proliferation. We also employed the colony formation assay to further confirm that compounds 11m and 11t can inhibit liver cancer cell proliferation (as shown in Figure 5). HepG2 cells were treated with low, medium, and high concentrations (2, 4, and 8 μmol/L) of the compounds for 7 days, followed by counting the number of cell colonies and analyzing the proliferation inhibition rate.
HepG2 cells were seeded in 6-well plates at a density of 500 cells per well and incubated at 37 °C for 24 h, followed by treatment with 11m or 11t (2, 4, and 8 μM) for 24 h. The medium was then replaced with fresh culture medium, and after 7 days, the culture medium was removed and washed with PBS. Cells were fixed with 4% paraformaldehyde at room temperature for 20 min, stained with 0.1% crystal violet staining solution at room temperature for 20 min, and excess staining solution was washed off with distilled water. The plates were dried at 37 °C, photographed, and the number of colonies was counted using ImageJ.

The next data set deals with Kunming mice. The experiment in a line: Acute toxicity test in mice. Type of data set: in vivo. The method, then: To further assess the safety of the compounds, we conducted an acute toxicity experiment on mice.
Liver function was evaluated by measuring serum glutamic pyruvic transaminase (GPT) and glutamic oxaloacetic transaminase (GOT) levels (Figure 10C). GPT and GOT are commonly used indicators for assessing liver function, reflecting physiological and pathological changes in the liver. Elevated serum levels of GPT and GOT indicate damage to liver cells or mitochondria. […] This provides additional evidence for the high safety of the compound and experimental data for clinical drug safety (p > 0.05).
Six 5-week-old, SPF-grade, healthy, male Kunming mice (31.13 ± 1.13 g) were purchased from Henan Skibest Biotechnology Co., Ltd. (Anyang, China) (License No.: SCXK (Yu) 2020-0005). They were housed at the SPF animal center of the School of Basic Medicine and Forensic Science, Henan University of Science and Technology, with normal solid food and drinking water provided, and a 12 h light–dark cycle each day. After one week of acclimatization, the mice were randomly divided into two groups: the control group and the treatment group (11t), which were administered a single gavage of the corresponding volume of solvent and drug (drug concentration: 800 mg/kg; drug solvent: 10% DMSO + 40% PEG300 + 5% Tween 80 + 45% saline) at a dosage of 0.1 mL/10 g. After administration, the mice’s activity was monitored daily, and their weight was recorded. After 14 days, blood was collected via the eye and the mice were euthanized by cervical dislocation. The heart, liver, spleen, lungs, and kidneys were extracted, rinsed with saline, and the surface moisture was absorbed with filter paper. The weight of all organs was measured using an electronic balance. The organ coefficient was calculated as organ weight/body weight × 100. Blood samples were left at room temperature for 1 h, then centrifuged at 2500 rpm for 20 min to measure liver function indicators GPT and GOT (Nanjing Jiancheng Bioengineering Institute, Nanjing, China). After weighing the organs, they were fixed in 4% tissue fixative for 24 h, dehydrated, cleared, embedded in paraffin, and stained with HE for microscopic observation of the tissues.

[4] abbreviates: mice, single gavage 800 mg/kg, day 14.

In the case of `COc1cc2ncnc(Nc3cccc(-c4cn(Cc5ccc(I)cc5)nn4)c3)c2cc1OCCCN1CCOCC1` [Compound 11m, N-(3-(1-(4-iodobenzyl)-1H-1,2,3-triazol-4-yl)phenyl)-7-methoxy-6-(3-morpholinopropoxy)quinazolin-4-amine], the melting point lay within 185 to 186 °C. Further, in data set [1], the “expression level of Bcl-2” value is reported as “decreased”, the “expression level of Caspase-3” value is reported as “decreased”, the “expression level of Caspase-9” value is “decreased” and the “expression level of PARP” value is “decreased”. Besides, in data set [1], the “level of cleaved Caspase-3” value is “increased”, the “level of cleaved PARP” value is listed as “increased” and the “expression of Bax” value is “increased”. The “number of cells that migrated through the microporous membrane” value in the data set with HepG2 cells [2] is reported as “significantly reduced”. In addition, the “colony formation in HepG2 cells” value in the data set with HepG2 cells [3] (4 μM) is given as “began to noticeably inhibit colony formation”. Moreover, the “colony formation in HepG2 cells” value in the data set on HepG2 cells [3] (8 μM) is “almost completely suppressed”.

`COc1cc2ncnc(Nc3cccc(-c4cn(Cc5cccc(I)c5)nn4)c3)c2cc1OCCCN1CCOCC1` [Compound 11t, N-(3-(1-(3-iodobenzyl)-1H-1,2,3-triazol-4-yl)phenyl)-7-methoxy-6-(3-morpholinopropoxy)quinazolin-4-amine]: in data set [1], the “expression level of Bcl-2” value was “decreased”, the “expression level of Caspase-3” value was “decreased”, the “expression level of Caspase-9” value is recorded as “decreased” and the “expression level of PARP” value is listed as “decreased”. For the same compound, in data set [1], the “level of cleaved Caspase-3” value was “increased”, the “level of cleaved PARP” value is given as “increased” and the “expression of Bax” value is on record as “increased”. Further, the “number of cells that migrated through the microporous membrane” value in the data set with HepG2 cells [2] is on record as “significantly reduced”. In addition, the toxicity in mice entry with Kunming mice (acute toxicity, 800 mg/kg gavage) is listed as “low toxicity”. For the same compound, the “body weight vs control group” value in the data set on Kunming mice (mice, single gavage 800 mg/kg, 14 days, p > 0.05) is listed as “no statistically significant differences”. Besides, in the data set with Kunming mice (setting [4]), the “histological analysis (H&E) of hearts, livers, spleens, lungs, and kidneys” value is “no significant toxic characteristics”; the “organ indices of the heart, liver, spleen, lungs, and kidneys vs control group” value is given as “no statistically significant differences”; the organ morphological examination entry is “No pathological morphology was observed”. Besides, the “serum GPT and GOT (biochemical indicators) vs control group” value in the data set on Kunming mice (mice, single gavage 800 mg/kg, day 14, p > 0.05) is recorded as “no statistically significant differences”. Moreover, the “colony formation in HepG2 cells” value in the data set on HepG2 cells [3] (4 μM) is “began to noticeably inhibit colony formation”. Moreover, the “colony formation in HepG2 cells” value with HepG2 cells [3] (8 μM) is on record as “almost completely suppressed”.

As a reminder, the melting point is the temperature, or range, at which the solid turns liquid.
